Results on five molecules are retold here after US9492436B2, “Azabenzimidazole derivatives” (Boehringer Ingelheim International GmbH, priority 2013, dated 2016).

Series [1] concerns plasma proteins. Nature of the series: Plasma protein binding by equilibrium dialysis, human plasma. As to conditions: 37° C. The class given is in vitro ADME. Here is the method: (§1) Equilibrium dialysis (ED) technique is used to determine the approximate in vitro fractional binding of test compounds to plasma proteins (human, rat mouse):
(§2) Teflon dialysis cells or RED-devices are used. Each cell consists of a donor and an acceptor chamber, separated by an ultrathin semipermeable membrane (cutoff 5-10 kDa, high permeability).
(§3) Stock solutions for each test compound are prepared in DMSO. Plasma (anticoagulant EDTA) is spiked with test compound and then transferred into the donor chamber, while dialysis buffer (PBS containing Dextran, pH 7.4) is dispensed into the acceptor chamber.
(§4) Dextran (Leuconostoc ssp, MW approx. 40000, No. 31389, Fluka) concentration [g/L] in PBS for species: • human: 40 g/L buffer • rat: 37 g/L buffer • mouse 32 g/L buffer.
(§5) Incubation is carried out for up to 6 hours (standard 3 h) under rotation at 37° C. After the dialysis period aliquots of both dialysates are analysed using HPLC-MS/MS.
(§6) Percent bound is calculated according to the equation: % bound=(Cp−Cb/Cp)×100 • Cp=plasma concentration • Cb=buffer concentration
(§7) Percent free is calculated according to the equation: % free=100−% bound
On the technique in general: In equilibrium dialysis only unbound substance equilibrates across the membrane.

In series [2] the test system is plasma proteins. The experiment in a line: Plasma protein binding by equilibrium dialysis, mouse plasma. It counts as in vitro ADME. To be noted: 37° C. Here is the method:
as §1, §2, §3, §4, §5, §6, §7

Series [3] concerns plasma proteins. Nature of the series: Plasma protein binding by equilibrium dialysis, rat plasma. It counts as in vitro ADME. As to conditions: 37° C. Here is the method: as §1, §2, §3, §4, §5, §6, §7
The target in series [4] is T1, AMPK complex 1 (containing alpha1beta1gamma1) (Homo sapiens, UniProt Q13131+Q9Y478).
T1 construct: GST (Glutathion S transferase) (N); made in house; host or cells: baculovirus; virus made in Sf9, expression in High Five cells
T1 sequence (Q13131 whole entry): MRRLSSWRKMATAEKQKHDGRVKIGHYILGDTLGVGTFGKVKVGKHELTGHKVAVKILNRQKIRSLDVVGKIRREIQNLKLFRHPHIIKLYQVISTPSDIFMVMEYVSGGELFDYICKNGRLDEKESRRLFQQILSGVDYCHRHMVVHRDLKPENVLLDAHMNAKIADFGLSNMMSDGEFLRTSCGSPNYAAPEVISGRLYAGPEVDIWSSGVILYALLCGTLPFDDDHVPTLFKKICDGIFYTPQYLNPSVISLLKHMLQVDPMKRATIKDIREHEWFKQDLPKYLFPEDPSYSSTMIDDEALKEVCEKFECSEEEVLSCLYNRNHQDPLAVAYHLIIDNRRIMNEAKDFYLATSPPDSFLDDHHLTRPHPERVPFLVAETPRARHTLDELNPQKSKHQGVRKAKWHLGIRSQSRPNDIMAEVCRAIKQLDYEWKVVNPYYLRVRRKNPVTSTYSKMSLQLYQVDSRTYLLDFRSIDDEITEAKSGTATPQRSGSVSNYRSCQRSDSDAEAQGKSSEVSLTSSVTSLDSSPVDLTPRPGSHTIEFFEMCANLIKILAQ
T1 sequence (Q9Y478 whole entry): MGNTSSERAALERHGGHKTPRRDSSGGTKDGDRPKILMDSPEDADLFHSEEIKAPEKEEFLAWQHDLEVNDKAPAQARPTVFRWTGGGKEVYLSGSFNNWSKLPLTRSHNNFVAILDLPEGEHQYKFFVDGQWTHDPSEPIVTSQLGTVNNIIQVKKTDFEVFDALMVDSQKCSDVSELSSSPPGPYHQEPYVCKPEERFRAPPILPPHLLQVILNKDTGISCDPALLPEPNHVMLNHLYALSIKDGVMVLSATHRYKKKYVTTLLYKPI
T1 sequence (P54619 whole entry partner): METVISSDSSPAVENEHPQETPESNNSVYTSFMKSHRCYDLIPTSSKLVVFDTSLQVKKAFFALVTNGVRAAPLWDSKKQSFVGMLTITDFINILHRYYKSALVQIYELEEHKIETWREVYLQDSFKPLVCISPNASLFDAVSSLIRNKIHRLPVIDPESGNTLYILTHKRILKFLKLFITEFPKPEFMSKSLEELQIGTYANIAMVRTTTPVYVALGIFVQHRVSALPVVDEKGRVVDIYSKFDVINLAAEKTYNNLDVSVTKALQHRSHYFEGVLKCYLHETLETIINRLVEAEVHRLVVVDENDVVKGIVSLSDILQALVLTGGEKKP
Nature of the series: In vitro AMPK activation assay (ADP-Glo Kinase Assay). It counts as biochemical. To be noted: 30 μM ATP, 1 μM peptide, 60 min, room temperature. In outline:
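GST-tagged human AMPK alpha1beta1gamma1 expressed in insect cells, incubated with 1 μM peptide substrate and 30 μM ATP for 60 min at room temperature, 0.1% DMSO. ADP-Glo luminescence as % of vehicle control (AMP 30 μM high reference); EC50 from 4-parameter fit; activation above 100%.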
For orientation: ADP-Glo turns the ADP formed in a reaction into a luminescent signal.

The nature of series [5]: Aqueous solubility (buffer vs acetonitrile/water, 24 h shaking, LC-UV). It counts as physicochemical. As to conditions: kinetic from dmso stock, 2.5% DMSO, ">" = more than 90% dissolved. Here is the method: The aqueous solubility of the compounds of the invention is determined by comparing the amount dissolved in buffer to the amount in an acetonitrile/water (1/1) solution. Starting from a 10 mM DMSO stock solution aliquots are diluted with acetonitrile/water (1/1) or buffer resp. After 24 h of shaking, the solutions are filtrated and analyzed by LC-UV. The amount dissolved in buffer is compared to the amount in the acetonitrile solution.
Solubility is usually being measured from 0.001 to 0.125 mg/ml at a DMSO concentration of 2.5%. If more than 90% of the compound is dissolved in buffer, the value is marked with “>”.

Converted amounts (≈) assume the structure as drawn.

A word on the EC50: it is the concentration giving half of the maximal effect. Low values mean higher potency in that assay, high ones lower potency in that assay. For orientation: solubility means the concentration that dissolves in the medium under given conditions. The low end stands for a poorly soluble substance, the high end for a readily soluble substance.

Consider `CS(C)(=O)=Nc1ccc(-c2ccc(-c3nc4[nH]c(O[C@@H]5CO[C@H]6[C@@H]5OC[C@H]6O)nc4cc3Cl)cc2)cc1` [Example 2, N-(4′-(6-Chloro-2-((3R,3aR,6R,6aR)-6-hydroxyhexahydrofuro[3,2-b]furan-3-yloxy)-3H-imidazo[4,5-b]pyridin-5-yl)biphenyl-4-yl)-S,S-dimethylsulfoximide], for which the entries for the “Plasma Protein Binding” value in series [1], in series [2] and in series [3] were 98.55 % bound, 98.68 % bound and 98.67 % bound, respectively. This molecule also yielded an EC50 in series [4] of 3 nM. In addition, the solubility at 24 h worked out at 17 µg/mL (≈ 31.4 µM) in series [5] (pH 2.2 buffer), 2 µg/mL (≈ 3.7 µM) in series [5] (pH 4.5 buffer) and 1 µg/mL (≈ 1.85 µM) in series [5] (pH 6.8 buffer).
With `CN=S(C)(=O)c1ccc(-c2ccc(-c3nc4[nH]c(O[C@@H]5CO[C@H]6[C@@H]5OC[C@H]6O)nc4cc3Cl)cc2)cc1` (stereo partly drawn) [Example 10, (3R,3aR,6R,6aR)-6-(6-Chloro-5-(4′-(N,S-dimethylsulfonimidoyl)biphenyl-4-yl)-3H-imidazo[4,5-b]pyridin-2-yloxy)hexahydrofuro[3,2-b]furan-3-ol], the “Plasma Protein Binding” value was 98.92 % bound in series [1], 98.64 % bound in series [2] and 98.23 % bound in series [3]. For the same molecule, in series [4], the EC50 is 4 nM. Also, the solubility at 24 h was 105 µg/mL (≈ 194 µM) in series [5] (pH 2.2 buffer), below 1 µg/mL in series [5] (pH 4.5 buffer) and below 1 µg/mL in series [5] (pH 6.8 buffer).
In the case of `CS(C)(=O)=NCc1ccc(-c2ccc(-c3nc4[nH]c(O[C@@H]5CO[C@H]6[C@@H]5OC[C@H]6O)nc4cc3Cl)cc2)cc1` [Example 45, N-(4′-(6-Chloro-2-((3R,3aR,6R,6aR)-6-hydroxyhexahydrofuro[3,2-b]furan-3-yloxy)-3H-imidazo[4,5-b]pyridin-5-yl)biphenyl-4-ylmethyl)-S,S-dimethylsulfoximide], the “Plasma Protein Binding” value in series [1] is recorded as 98.48 % bound; in series [2] it was 99.23 % bound; in series [3] it was 98.94 % bound. Besides, the midpoint of the response in series [4], the EC50, lay at 29 nM. Besides, the solubility at 24 h in series [5] (pH 2.2 buffer) is above 119 µg/mL; in series [5] (pH 4.5 buffer) it was 5 µg/mL (≈ 9.01 µM); in series [5] (pH 6.8 buffer), below 1 µg/mL.
With `CS(C)(=O)=NCC1CCN(c2ccc(-c3nc4[nH]c(O[C@@H]5CO[C@H]6[C@@H]5OC[C@H]6O)nc4cc3Cl)cc2)CC1` [Example 31, N-(1-(4-(6-Chloro-2-((3R,3aR,6R,6aR)-6-hydroxyhexahydrofuro[3,2-b]furan-3-yloxy)-3H-imidazo[4,5-b]pyridin-5-yl)phenyl)piperidin-4-ylmethyl)-S,S-dimethylsulfoximide], in series [4], the EC50 is 17 nM. The solubility at 24 h in series [5] (pH 2.2 buffer) is above 122 µg/mL; in series [5] (pH 4.5 buffer), 105 µg/mL (≈ 187 µM); in series [5] (pH 6.8 buffer), 89 µg/mL (≈ 158 µM).
In the case of `CS(=N)(=O)c1ccc(-c2ccc(-c3nc4[nH]c(O[C@@H]5CO[C@H]6[C@@H]5OC[C@H]6O)nc4cc3Cl)cc2)nc1` (some centres unmarked) [Example 27], a half-maximal effect in series [4] (EC50) was put at 4 nM. The solubility at 24 h in series [5] (pH 2.2 buffer) was 77 µg/mL (≈ 146 µM); in series [5] (pH 4.5 buffer) it was below 1 µg/mL; in series [5] (pH 6.8 buffer) it was below 1 µg/mL.
